According to the kinase profiling compilation of Christmann-Franck et al. (2016):

Tests used:
Test in all cases: KINOMEscan competition binding
Details in all cases: compound 10.0 µM
STK25 (human) = STK25 (human) (UniProt O00506)
MYO3B (human) = MYO3B (human) (UniProt Q8WXR4)
PAK6 (human) = PAK6 (human) (UniProt Q9NQU5)
CHEK2 (human) = CHEK2 (human) (UniProt O96017)
MAPK3 (human) = MAPK3 (human) (UniProt P27361)
PRKX (human) = PRKX (human) (UniProt P51817)
RIOK1 (human) = RIOK1 (human) (UniProt Q9BRS2)
Chain of RIOK1 (human) (Q9BRS2 whole entry, looked up): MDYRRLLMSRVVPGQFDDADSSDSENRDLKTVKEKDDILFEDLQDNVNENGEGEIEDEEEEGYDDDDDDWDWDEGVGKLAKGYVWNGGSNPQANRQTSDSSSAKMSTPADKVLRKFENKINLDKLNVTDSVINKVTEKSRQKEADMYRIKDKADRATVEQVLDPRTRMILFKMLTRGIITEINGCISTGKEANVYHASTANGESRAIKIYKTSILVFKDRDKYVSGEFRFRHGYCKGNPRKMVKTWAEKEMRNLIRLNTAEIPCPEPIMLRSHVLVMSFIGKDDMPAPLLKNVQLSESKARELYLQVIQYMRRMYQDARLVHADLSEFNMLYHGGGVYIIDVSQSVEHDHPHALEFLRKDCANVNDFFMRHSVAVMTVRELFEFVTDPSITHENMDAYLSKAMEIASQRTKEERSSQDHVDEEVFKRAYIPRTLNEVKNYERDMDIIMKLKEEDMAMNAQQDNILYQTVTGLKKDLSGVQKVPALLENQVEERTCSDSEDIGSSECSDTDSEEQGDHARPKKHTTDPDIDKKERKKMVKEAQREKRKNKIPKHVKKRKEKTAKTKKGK

[1] = target: JAK2 JH1 catalytic (human) (UniProt O60674)
Chain of JAK2 JH1 catalytic (human) (O60674 whole entry, looked up): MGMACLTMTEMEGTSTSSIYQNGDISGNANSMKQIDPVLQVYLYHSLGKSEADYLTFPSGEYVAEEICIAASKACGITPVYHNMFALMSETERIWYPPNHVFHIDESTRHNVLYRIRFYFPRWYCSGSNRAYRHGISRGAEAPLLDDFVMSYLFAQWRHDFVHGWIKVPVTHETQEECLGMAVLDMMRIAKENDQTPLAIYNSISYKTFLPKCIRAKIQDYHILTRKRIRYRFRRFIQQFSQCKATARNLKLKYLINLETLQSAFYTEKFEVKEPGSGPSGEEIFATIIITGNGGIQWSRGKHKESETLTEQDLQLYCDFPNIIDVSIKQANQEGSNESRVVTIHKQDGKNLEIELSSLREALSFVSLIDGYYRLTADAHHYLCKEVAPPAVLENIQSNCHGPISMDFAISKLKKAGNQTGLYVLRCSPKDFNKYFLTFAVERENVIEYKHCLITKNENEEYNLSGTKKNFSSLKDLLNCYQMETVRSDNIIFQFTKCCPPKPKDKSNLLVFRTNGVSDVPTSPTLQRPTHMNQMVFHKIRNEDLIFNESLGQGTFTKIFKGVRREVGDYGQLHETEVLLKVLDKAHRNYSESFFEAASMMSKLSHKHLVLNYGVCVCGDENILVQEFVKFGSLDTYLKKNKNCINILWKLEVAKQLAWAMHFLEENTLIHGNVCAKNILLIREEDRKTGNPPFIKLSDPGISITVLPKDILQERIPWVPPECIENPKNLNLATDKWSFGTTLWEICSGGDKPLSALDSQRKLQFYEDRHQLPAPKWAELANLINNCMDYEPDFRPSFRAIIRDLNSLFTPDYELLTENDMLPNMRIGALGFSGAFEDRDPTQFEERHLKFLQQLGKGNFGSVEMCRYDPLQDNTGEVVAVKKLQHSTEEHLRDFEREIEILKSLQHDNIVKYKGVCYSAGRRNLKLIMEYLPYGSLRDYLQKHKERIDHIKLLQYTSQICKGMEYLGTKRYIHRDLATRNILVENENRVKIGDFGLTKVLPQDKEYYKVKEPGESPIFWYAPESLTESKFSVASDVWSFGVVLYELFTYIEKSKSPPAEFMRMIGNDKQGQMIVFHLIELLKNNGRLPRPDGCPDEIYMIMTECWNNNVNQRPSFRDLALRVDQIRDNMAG

NUAK1 (human) = NUAK1 (human) (UniProt O60285)
DAPK3 (human) = DAPK3 (human) (UniProt O43293)
ULK1 (human) = ULK1 (human) (UniProt O75385)
TNK1 (human) = TNK1 (human) (UniProt Q13470)
AKT3 (human) = AKT3 (human) (UniProt Q9Y243)
CaMK1 (human) = CaMK1 (human) (UniProt Q14012)
Chain of CaMK1 (human) (Q14012 whole entry, looked up): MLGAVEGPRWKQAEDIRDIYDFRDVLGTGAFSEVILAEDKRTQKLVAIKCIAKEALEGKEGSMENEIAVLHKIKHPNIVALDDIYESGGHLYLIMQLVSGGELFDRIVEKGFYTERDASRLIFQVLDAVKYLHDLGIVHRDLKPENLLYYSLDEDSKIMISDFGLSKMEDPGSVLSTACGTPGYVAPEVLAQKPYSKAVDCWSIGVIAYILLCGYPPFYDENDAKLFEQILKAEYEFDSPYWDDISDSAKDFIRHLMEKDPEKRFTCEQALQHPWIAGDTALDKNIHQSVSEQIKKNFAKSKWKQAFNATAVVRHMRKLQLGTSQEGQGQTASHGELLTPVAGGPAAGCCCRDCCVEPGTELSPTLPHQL

STK24 (human) = STK24 (human) (UniProt Q9Y6E0)
TNNI3K (human) = TNNI3K (human) (UniProt Q59H18)
EPHA7 (human) = EPHA7 (human) (UniProt Q15375)
Chain of EPHA7 (human) (Q15375 whole entry, looked up): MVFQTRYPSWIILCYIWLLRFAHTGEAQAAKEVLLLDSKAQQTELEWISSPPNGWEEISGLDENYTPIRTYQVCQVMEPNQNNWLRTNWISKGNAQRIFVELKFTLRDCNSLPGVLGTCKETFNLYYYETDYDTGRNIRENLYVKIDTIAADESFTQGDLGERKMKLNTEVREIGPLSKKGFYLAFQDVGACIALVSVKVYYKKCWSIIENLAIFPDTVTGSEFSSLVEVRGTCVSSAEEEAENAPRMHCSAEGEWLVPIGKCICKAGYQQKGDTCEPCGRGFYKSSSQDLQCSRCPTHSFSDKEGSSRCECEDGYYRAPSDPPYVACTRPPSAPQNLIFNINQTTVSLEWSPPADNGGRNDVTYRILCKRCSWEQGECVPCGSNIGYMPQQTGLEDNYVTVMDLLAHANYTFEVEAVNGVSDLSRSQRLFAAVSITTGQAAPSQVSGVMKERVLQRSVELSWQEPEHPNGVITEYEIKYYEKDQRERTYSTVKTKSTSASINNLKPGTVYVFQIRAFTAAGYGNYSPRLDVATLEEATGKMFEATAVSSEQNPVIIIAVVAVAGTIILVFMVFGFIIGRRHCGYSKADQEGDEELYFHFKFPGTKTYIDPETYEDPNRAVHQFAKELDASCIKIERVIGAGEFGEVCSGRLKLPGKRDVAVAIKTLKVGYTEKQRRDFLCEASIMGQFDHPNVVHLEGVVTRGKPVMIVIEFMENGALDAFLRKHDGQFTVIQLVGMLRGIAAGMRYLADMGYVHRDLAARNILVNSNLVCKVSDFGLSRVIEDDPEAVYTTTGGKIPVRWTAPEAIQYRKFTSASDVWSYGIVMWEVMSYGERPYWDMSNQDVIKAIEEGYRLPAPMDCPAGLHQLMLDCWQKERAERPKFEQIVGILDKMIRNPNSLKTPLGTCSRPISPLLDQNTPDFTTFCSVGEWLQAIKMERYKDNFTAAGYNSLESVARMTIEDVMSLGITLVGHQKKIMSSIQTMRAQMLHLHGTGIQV

MELK (human) = MELK (human) (UniProt Q14680)
CDK3 (human) = CDK3 (human) (UniProt Q00526)
MAPKAPK5 (human) = MAPKAPK5 (human) (UniProt Q8IW41)
SRPK3 (human) = SRPK3 (human) (UniProt Q9UPE1)
MAP3K10 (human) = MAP3K10 (human) (UniProt Q02779)
PRKCE (human) = PRKCE (human) (UniProt Q02156)
PIM1 (human) = PIM1 (human) (UniProt P11309)
ACVRL1 (human) = ACVRL1 (human) (UniProt P37023)
SRC (human) = SRC (human) (UniProt P12931)
CDC42BPA (human) = CDC42BPA (human) (UniProt Q5VT25)
MKNK1 (human) = MKNK1 (human) (UniProt Q9BUB5)
PHKG1 (human) = PHKG1 (human) (UniProt Q16816)
DAPK2 (human) = DAPK2 (human) (UniProt Q9UIK4)
MARK1 (human) = MARK1 (human) (UniProt Q9P0L2)
LATS2 (human) = LATS2 (human) (UniProt Q9NRM7)
Chain of LATS2 (human) (Q9NRM7 whole entry, looked up): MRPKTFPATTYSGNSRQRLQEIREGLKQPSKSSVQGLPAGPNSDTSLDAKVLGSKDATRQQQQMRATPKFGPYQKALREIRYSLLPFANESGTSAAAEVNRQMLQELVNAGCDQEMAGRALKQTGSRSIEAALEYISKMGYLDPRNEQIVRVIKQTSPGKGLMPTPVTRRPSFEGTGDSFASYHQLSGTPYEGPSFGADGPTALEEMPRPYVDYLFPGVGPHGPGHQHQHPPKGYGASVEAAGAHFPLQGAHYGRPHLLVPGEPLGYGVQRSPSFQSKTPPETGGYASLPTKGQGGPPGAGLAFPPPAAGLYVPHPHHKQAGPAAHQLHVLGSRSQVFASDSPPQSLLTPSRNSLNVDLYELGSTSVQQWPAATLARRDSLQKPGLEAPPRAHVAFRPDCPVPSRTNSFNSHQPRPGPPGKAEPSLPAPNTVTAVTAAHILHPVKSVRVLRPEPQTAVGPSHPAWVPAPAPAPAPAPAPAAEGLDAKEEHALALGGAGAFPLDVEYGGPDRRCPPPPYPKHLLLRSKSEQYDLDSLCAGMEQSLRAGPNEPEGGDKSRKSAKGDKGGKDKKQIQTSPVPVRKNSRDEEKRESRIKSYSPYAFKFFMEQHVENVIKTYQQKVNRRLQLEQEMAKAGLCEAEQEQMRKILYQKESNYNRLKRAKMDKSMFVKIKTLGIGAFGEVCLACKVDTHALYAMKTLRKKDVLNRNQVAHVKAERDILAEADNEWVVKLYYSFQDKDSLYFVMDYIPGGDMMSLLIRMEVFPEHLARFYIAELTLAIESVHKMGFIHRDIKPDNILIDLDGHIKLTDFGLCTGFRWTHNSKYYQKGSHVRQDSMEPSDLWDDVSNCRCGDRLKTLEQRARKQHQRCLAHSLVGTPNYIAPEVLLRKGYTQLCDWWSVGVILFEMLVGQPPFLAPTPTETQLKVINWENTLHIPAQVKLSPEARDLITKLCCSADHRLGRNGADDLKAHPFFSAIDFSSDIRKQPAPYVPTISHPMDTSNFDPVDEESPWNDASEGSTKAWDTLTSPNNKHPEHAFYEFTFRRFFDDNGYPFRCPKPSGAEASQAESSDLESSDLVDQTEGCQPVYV

TAOK3 (human) = TAOK3 (human) (UniProt Q9H2K8)
Chain of TAOK3 (human) (Q9H2K8 whole entry, looked up): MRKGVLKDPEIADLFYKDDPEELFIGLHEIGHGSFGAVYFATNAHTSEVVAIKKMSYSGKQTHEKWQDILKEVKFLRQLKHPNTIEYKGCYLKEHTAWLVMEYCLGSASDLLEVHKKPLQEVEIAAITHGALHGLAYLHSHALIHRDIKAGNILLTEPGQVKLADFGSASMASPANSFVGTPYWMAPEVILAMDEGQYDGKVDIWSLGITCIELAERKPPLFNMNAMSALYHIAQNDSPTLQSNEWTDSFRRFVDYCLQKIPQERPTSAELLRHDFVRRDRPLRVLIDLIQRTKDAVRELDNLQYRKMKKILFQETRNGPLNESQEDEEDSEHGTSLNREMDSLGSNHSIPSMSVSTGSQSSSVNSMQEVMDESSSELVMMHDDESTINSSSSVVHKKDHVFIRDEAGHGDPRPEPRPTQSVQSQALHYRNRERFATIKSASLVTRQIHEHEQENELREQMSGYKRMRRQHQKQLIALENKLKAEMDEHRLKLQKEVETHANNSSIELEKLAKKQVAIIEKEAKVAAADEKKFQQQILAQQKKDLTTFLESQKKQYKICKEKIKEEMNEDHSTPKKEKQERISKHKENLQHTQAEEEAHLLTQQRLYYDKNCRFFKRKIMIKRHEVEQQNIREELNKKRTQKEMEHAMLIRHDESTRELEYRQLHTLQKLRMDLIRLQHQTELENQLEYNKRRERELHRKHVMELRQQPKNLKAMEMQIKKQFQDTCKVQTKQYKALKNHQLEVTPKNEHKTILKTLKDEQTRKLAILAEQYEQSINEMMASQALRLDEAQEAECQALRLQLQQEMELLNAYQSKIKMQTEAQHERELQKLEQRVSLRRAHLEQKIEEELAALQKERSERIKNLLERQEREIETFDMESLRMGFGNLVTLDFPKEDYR

GAK (human) = GAK (human) (UniProt O14976)
MYLK (human) = MYLK (human) (UniProt Q15746)
FYN (human) = FYN (human) (UniProt P06241)
PRKACB (human) = PRKACB (human) (UniProt P22694)
DYRK1B (human) = DYRK1B (human) (UniProt Q9Y463)
[2] = target: TYK2 JH1 catalytic (human) (UniProt P29597)
CSNK1E (human) = CSNK1E (human) (UniProt P49674)

SMILES	kinase still bound, per cent of control (STK25 (human))	kinase still bound, per cent of control (MYO3B (human))	kinase still bound, per cent of control (PAK6 (human))	kinase still bound, per cent of control (CHEK2 (human))	kinase still bound, per cent of control (MAPK3 (human))	kinase still bound, per cent of control (PRKX (human))	kinase still bound, per cent of control (RIOK1 (human))	kinase still bound, per cent of control (NUAK1 (human))	kinase still bound, per cent of control (DAPK3 (human))	kinase still bound, per cent of control (TNK1 (human))	kinase still bound, per cent of control (AKT3 (human))	kinase still bound, per cent of control (CaMK1 (human))	kinase still bound, per cent of control (STK24 (human))	kinase still bound, per cent of control (TNNI3K (human))	kinase still bound, per cent of control (EPHA7 (human))	kinase still bound, per cent of control (MELK (human))	kinase still bound, per cent of control (CDK3 (human))	kinase still bound, per cent of control (MAPKAPK5 (human))	kinase still bound, per cent of control (SRPK3 (human))	kinase still bound, per cent of control (MAP3K10 (human))	other results
Nc1ccc(-c2ccc3ncc4ccc(=O)n(-c5cccc(C(F)(F)F)c5)c4c3c2)cn1	56%	87%	100%	100%	100%	100%	65%	83%	81%	100%	100%	82%	98%	100%	100%	50%	100%	100%	95%	100%	kinase still bound, per cent of control [1]: 64%; kinase still bound, per cent of control (ULK1 (human)): 96%; kinase still bound, per cent of control (PRKCE (human)): 69%; kinase still bound, per cent of control (PIM1 (human)): 92%; kinase still bound, per cent of control (ACVRL1 (human)): 59%; kinase still bound, per cent of control (SRC (human)): 100%; kinase still bound, per cent of control (CDC42BPA (human)): 99%; kinase still bound, per cent of control (MKNK1 (human)): 43%; kinase still bound, per cent of control (PHKG1 (human)): 100%; kinase still bound, per cent of control (DAPK2 (human)): 100%; kinase still bound, per cent of control (MARK1 (human)): 100%; kinase still bound, per cent of control (LATS2 (human)): 100%; kinase still bound, per cent of control (TAOK3 (human)): 80%; kinase still bound, per cent of control (GAK (human)): 56%; kinase still bound, per cent of control (MYLK (human)): 95%; kinase still bound, per cent of control (FYN (human)): 92%; kinase still bound, per cent of control (PRKACB (human)): 85%; kinase still bound, per cent of control (DYRK1B (human)): 97%; kinase still bound, per cent of control [2]: 85%
Cc1ccc2nc(NCCN)c3ncc(C)n3c2c1	79%	100%	100%	97%	97%	86%	100%	88%	53%	100%	100%	98%	81%	100%	100%	96%	100%	100%	100%	100%	kinase still bound, per cent of control [1]: 100%; kinase still bound, per cent of control (PRKCE (human)): 100%; kinase still bound, per cent of control (PIM1 (human)): 100%; kinase still bound, per cent of control (ACVRL1 (human)): 93%; kinase still bound, per cent of control (SRC (human)): 100%; kinase still bound, per cent of control (CDC42BPA (human)): 85%; kinase still bound, per cent of control (MKNK1 (human)): 100%; kinase still bound, per cent of control (PHKG1 (human)): 95%; kinase still bound, per cent of control (DAPK2 (human)): 65%; kinase still bound, per cent of control (CSNK1E (human)): 58%; kinase still bound, per cent of control (MARK1 (human)): 100%; kinase still bound, per cent of control (LATS2 (human)): 100%; kinase still bound, per cent of control (TAOK3 (human)): 59%; kinase still bound, per cent of control (GAK (human)): 79%; kinase still bound, per cent of control (MYLK (human)): 79%; kinase still bound, per cent of control (FYN (human)): 100%; kinase still bound, per cent of control (PRKACB (human)): 100%; kinase still bound, per cent of control (DYRK1B (human)): 85%; kinase still bound, per cent of control [2]: 100%
CCCS(=O)(=O)Nc1ccc(F)c(C(=O)c2c[nH]c3ncc(-c4ccc(Cl)cc4)cc23)c1F	100%	64%	74%	100%	100%	100%	100%	100%	95%	100%	100%	25%	77%	65%	100%	100%	94%	100%	100%	73%	kinase still bound, per cent of control [1]: 84%; kinase still bound, per cent of control (ULK1 (human)): 93%; kinase still bound, per cent of control (PRKCE (human)): 87%; kinase still bound, per cent of control (PIM1 (human)): 95%; kinase still bound, per cent of control (ACVRL1 (human)): 65%; kinase still bound, per cent of control (SRC (human)): 3.4%; kinase still bound, per cent of control (CDC42BPA (human)): 80%; kinase still bound, per cent of control (MKNK1 (human)): 70%; kinase still bound, per cent of control (PHKG1 (human)): 100%; kinase still bound, per cent of control (DAPK2 (human)): 95%; kinase still bound, per cent of control (MARK1 (human)): 100%; kinase still bound, per cent of control (LATS2 (human)): 75%; kinase still bound, per cent of control (TAOK3 (human)): 74%; kinase still bound, per cent of control (GAK (human)): 84%; kinase still bound, per cent of control (MYLK (human)): 91%; kinase still bound, per cent of control (FYN (human)): 9.1%; kinase still bound, per cent of control (PRKACB (human)): 100%; kinase still bound, per cent of control (DYRK1B (human)): 100%; kinase still bound, per cent of control [2]: 47%
CCOc1cc2ncc(C#N)c(Nc3ccc(OCc4ccccn4)c(Cl)c3)c2cc1NC(=O)/C=C/CN(C)C	13%	100%	74%	79%	100%	100%	68%	61%	91%	100%	100%	88%	0.35%	100%	97%	55%	100%	89%	77%	88%	kinase still bound, per cent of control (ULK1 (human)): 100%; kinase still bound, per cent of control (PRKCE (human)): 100%; kinase still bound, per cent of control (PIM1 (human)): 100%; kinase still bound, per cent of control (ACVRL1 (human)): 100%; kinase still bound, per cent of control (SRC (human)): 82%; kinase still bound, per cent of control (CDC42BPA (human)): 91%; kinase still bound, per cent of control (MKNK1 (human)): 29%; kinase still bound, per cent of control (PHKG1 (human)): 92%; kinase still bound, per cent of control (DAPK2 (human)): 87%; kinase still bound, per cent of control (CSNK1E (human)): 26%; kinase still bound, per cent of control (MARK1 (human)): 94%; kinase still bound, per cent of control (LATS2 (human)): 100%; kinase still bound, per cent of control (TAOK3 (human)): 75%; kinase still bound, per cent of control (GAK (human)): 10%; kinase still bound, per cent of control (MYLK (human)): 73%; kinase still bound, per cent of control (FYN (human)): 84%; kinase still bound, per cent of control (PRKACB (human)): 100%; kinase still bound, per cent of control (DYRK1B (human)): 99%; kinase still bound, per cent of control [2]: 100%
